Measured values from patent US10681909B2, “Herbicidal triazoles” (FMC Corporation, priority 2014, dated 2020).

Key:
Conditions in all cases: scale 0 to 100
[1] = system: waterhemp; assay: Test E preemergence; type: in vivo, Amaranthus rudis
Source text: (§1) Seeds of plant species selected from corn (Zea mays), soybean (Glycine max), lambsquarters (Chenopodium album), poinsettia, wild (wild poinsettia, Euphorbia heterophylla), pigweed, palmer (palmer pigweed, Amaranthus palmeri), waterhemp (common waterhemp, Amaranthus rudis), surinam grass (Brachiaria decumbens), crabgrass, large (large crabgrass, Digitaria sanguinalis), crabgrass, Brazilian (Brazilian crabgrass, Digitaria horizontalis), panicum, fall (fall panicum, Panicum dichotomiflorum), foxtail, giant (giant foxtail, Setaria faberii), foxtail, green (green foxtail, Setaria viridis), goosegrass (Eleusine indica), johnsongrass (Sorghum halepense), ragweed (common ragweed, Ambrosia elatior), barnyardgrass (Echinochloa crus-galli), sandbur (southern sandbur, Cenchrus echinatus), arrowleaf sida (Sida rhombifolia), ryegrass, Italian (Italian ryegrass, Lolium multiflorum), dayflower, VA (Virginia dayflower, Commelina virginica), field bindweed (Convolvulus arvensis), cocklebur (common cocklebur, Xanthium strumarium), morningglory (Ipomoea coccinea), nightshade (eastern black nightshade, Solanum ptycanthum), kochia (Kochia scoparia), nutsedge, yellow (yellow nutsedge, Cyperus esculentus), smartweed (ladysthumb smartweed, Polygonum persicaria), velvetleaf (Abutilon theophrasti), horseweed (Conyza canadensis), and beggarticks (hairy beggarticks, Bidens pilosa), were planted into a silt loam soil and treated preemergence with test chemicals formulated in a non-phytotoxic solvent mixture which included a surfactant.
(§2) At the same time, plants from these crop and weed species and also waterhemp_RES1, (ALS & Triazine resistant common waterhemp, Amaranthus rudis), and waterhemp_RES2, (ALS & HPPD resistant common waterhemp, Amaranthus rudis) were planted in pots containing Sunshine Redi-Earth® planting medium comprising spaghnum peat moss, vermiculite, starter nutrients and dolomitic limestone were treated with postemergence applications of test chemicals formulated in the same manner. Plants ranged in height from 2 to 18 cm for postemergence treatments (1- to 4-leaf stage). Treated plants and controls were maintained in a greenhouse for 14 to 21 d, after which time all species were compared to controls and visually evaluated. Plant response ratings, summarized in Table E, are based on a scale of 0 to 100 where 0 is no effect and 100 is complete control. A dash (-) response means no test result.

[2] = system: surinam grass; assay: Test E preemergence; type: in vivo, Brachiaria decumbens
Source text: as §1, §2

[3] = system: crabgrass, large; assay: Test E preemergence; type: in vivo, Digitaria sanguinalis
Source text: as §1, §2

[4] = system: foxtail, green; assay: Test E preemergence; type: in vivo, Setaria viridis
Source text: as §1, §2

[5] = system: ragweed; assay: Test E preemergence; type: in vivo, Ambrosia elatior
Source text: as §1, §2

[6] = system: dayflower, VA; assay: Test E preemergence; type: in vivo, Commelina virginica
Source text: as §1, §2

[7] = system: field bindweed; assay: Test E preemergence; type: in vivo, Convolvulus arvensis
Source text: as §1, §2

[8] = system: morningglory; assay: Test E preemergence; type: in vivo, Ipomoea coccinea
Source text: as §1, §2

[9] = system: kochia; assay: Test E preemergence; type: in vivo, Kochia scoparia
Source text: as §1, §2

[10] = system: nutsedge, yellow; assay: Test E preemergence; type: in vivo, Cyperus esculentus
Source text: as §1, §2

[11] = system: velvetleaf; assay: Test E preemergence; type: in vivo, Abutilon theophrasti
Source text: as §1, §2

[12] = system: beggarticks; assay: Test E preemergence; type: in vivo, Bidens pilosa
Source text: as §1, §2

[13] = system: waterhemp_RES1 (ALS & Triazine resistant common waterhemp); assay: Test E postemergence; type: in vivo, Amaranthus rudis
Source text: as §1, §2

[14] = system: waterhemp_RES2 (ALS & HPPD resistant common waterhemp); assay: Test E postemergence; type: in vivo, Amaranthus rudis
Source text: as §1, §2

[15] = system: waterhemp; assay: Test E postemergence; type: in vivo, Amaranthus rudis
Source text: as §1, §2

[16] = system: panicum, fall; assay: Test E postemergence; type: in vivo, Panicum dichotomiflorum
Source text: as §1, §2

[17] = system: barnyardgrass; assay: Test E postemergence; type: in vivo, Echinochloa crus-galli
Source text: as §1, §2

[18] = system: dayflower, VA; assay: Test E postemergence; type: in vivo, Commelina virginica
Source text: as §1, §2

[19] = system: field bindweed; assay: Test E postemergence; type: in vivo, Convolvulus arvensis
Source text: as §1, §2

[20] = system: beggarticks; assay: Test E postemergence; type: in vivo, Bidens pilosa
Source text: as §1, §2

Compound: CCOc1nc(-c2ccccc2)nn1Cc1ccnc(C(F)(F)F)c1 [Compound 27]
- Plant response rating ([1]; 16 g ai/ha): 100
- Plant response rating ([1]; 31 g ai/ha): 100
- Plant response rating ([1]; 62 g ai/ha): 100
- Plant response rating ([1]; 125 g ai/ha): 100
- Plant response rating ([2]; 16 g ai/ha): 0
- Plant response rating ([2]; 31 g ai/ha): 0
- Plant response rating ([2]; 62 g ai/ha): 10
- Plant response rating ([2]; 125 g ai/ha): 15
- Plant response rating ([3]; 16 g ai/ha): 98
- Plant response rating ([3]; 31 g ai/ha): 100
- Plant response rating ([3]; 62 g ai/ha): 100
- Plant response rating ([3]; 125 g ai/ha): 100
- Plant response rating ([4]; 16 g ai/ha): 75
- Plant response rating ([4]; 31 g ai/ha): 100
- Plant response rating ([4]; 62 g ai/ha): 100
- Plant response rating ([4]; 125 g ai/ha): 100
- Plant response rating ([5]; 16 g ai/ha): 50
- Plant response rating ([5]; 31 g ai/ha): 35
- Plant response rating ([5]; 62 g ai/ha): 90
- Plant response rating ([5]; 125 g ai/ha): 80
- Plant response rating ([6]; 16 g ai/ha): 10
- Plant response rating ([6]; 31 g ai/ha): 10
- Plant response rating ([6]; 62 g ai/ha): 10
- Plant response rating ([6]; 125 g ai/ha): 50
- Plant response rating ([7]; 16 g ai/ha): 0
- Plant response rating ([7]; 31 g ai/ha): 0
- Plant response rating ([7]; 62 g ai/ha): 60
- Plant response rating ([7]; 125 g ai/ha): 90
- Plant response rating ([8]; 16 g ai/ha): 15
- Plant response rating ([8]; 31 g ai/ha): 25
- Plant response rating ([8]; 62 g ai/ha): 35
- Plant response rating ([8]; 125 g ai/ha): 35
- Plant response rating ([9]; 16 g ai/ha): 65
- Plant response rating ([9]; 31 g ai/ha): 90
- Plant response rating ([9]; 62 g ai/ha): 100
- Plant response rating ([9]; 125 g ai/ha): 100
- Plant response rating ([10]; 16 g ai/ha): 0
- Plant response rating ([10]; 31 g ai/ha): 0
- Plant response rating ([10]; 62 g ai/ha): 0
- Plant response rating ([10]; 125 g ai/ha): 15
- Plant response rating ([11]; 16 g ai/ha): 35
- Plant response rating ([11]; 31 g ai/ha): 50
- Plant response rating ([11]; 62 g ai/ha): 50
- Plant response rating ([11]; 125 g ai/ha): 95
- Plant response rating ([12]; 16 g ai/ha): 0
- Plant response rating ([12]; 31 g ai/ha): 0
- Plant response rating ([12]; 62 g ai/ha): 0
- Plant response rating ([12]; 125 g ai/ha): 0
- Plant response rating ([13]; 16 g ai/ha): 95
- Plant response rating ([13]; 31 g ai/ha): 95
- Plant response rating ([13]; 62 g ai/ha): 95
- Plant response rating ([13]; 125 g ai/ha): 98
- Plant response rating ([14]; 16 g ai/ha): 90
- Plant response rating ([14]; 31 g ai/ha): 95
- Plant response rating ([14]; 62 g ai/ha): 90
- Plant response rating ([14]; 125 g ai/ha): 90
- Plant response rating ([15]; 16 g ai/ha): 95
- Plant response rating ([15]; 31 g ai/ha): 98
- Plant response rating ([15]; 62 g ai/ha): 95
- Plant response rating ([15]; 125 g ai/ha): 95
- Plant response rating ([16]; 16 g ai/ha): 10
- Plant response rating ([16]; 31 g ai/ha): 10
- Plant response rating ([16]; 62 g ai/ha): 15
- Plant response rating ([16]; 125 g ai/ha): 30
- Plant response rating ([17]; 16 g ai/ha): 15
- Plant response rating ([17]; 31 g ai/ha): 20
- Plant response rating ([17]; 62 g ai/ha): 30
- Plant response rating ([17]; 125 g ai/ha): 50
- Plant response rating ([18]; 16 g ai/ha): 50
- Plant response rating ([18]; 31 g ai/ha): 60
- Plant response rating ([18]; 62 g ai/ha): 70
- Plant response rating ([18]; 125 g ai/ha): 75
- Plant response rating ([19]; 16 g ai/ha): 50
- Plant response rating ([19]; 31 g ai/ha): 60
- Plant response rating ([19]; 62 g ai/ha): 70
- Plant response rating ([19]; 125 g ai/ha): 80
- Plant response rating ([20]; 16 g ai/ha): 40
- Plant response rating ([20]; 31 g ai/ha): 50
- Plant response rating ([20]; 62 g ai/ha): 50
- Plant response rating ([20]; 125 g ai/ha): 55
